Data on two compounds can be found in US8048918B2, “Treatment of hyperproliferative diseases” (Vampex Limited, priority 2000, dated 2011).

Where no end group is shown, it is not given here.

Broadly, the IC50 is the concentration needed to halve the response being measured.

The target of one experiment is T1, RalDHI (Rattus norvegicus, UniProt P51647).
T1 sequence (P51647 1-501): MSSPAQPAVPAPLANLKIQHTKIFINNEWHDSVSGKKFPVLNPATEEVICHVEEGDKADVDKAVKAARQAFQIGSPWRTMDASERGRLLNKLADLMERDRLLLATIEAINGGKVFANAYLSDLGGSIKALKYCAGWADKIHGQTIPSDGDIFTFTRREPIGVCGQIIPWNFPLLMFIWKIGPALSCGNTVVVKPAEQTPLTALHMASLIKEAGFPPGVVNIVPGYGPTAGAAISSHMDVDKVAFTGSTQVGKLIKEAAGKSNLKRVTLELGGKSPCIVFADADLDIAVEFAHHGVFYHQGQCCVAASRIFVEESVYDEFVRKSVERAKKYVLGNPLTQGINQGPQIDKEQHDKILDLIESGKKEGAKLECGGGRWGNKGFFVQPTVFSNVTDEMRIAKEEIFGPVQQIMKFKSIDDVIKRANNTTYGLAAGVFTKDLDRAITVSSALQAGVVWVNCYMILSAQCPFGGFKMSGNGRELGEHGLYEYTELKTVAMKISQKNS
As to conditions: Penzes et al. 1997; Chen and Juchau 1997; cited from earlier work.

The target in the next experiment is T2, RalDHII (Rattus norvegicus, UniProt Q63639).
T2 sequence (Q63639 1-518): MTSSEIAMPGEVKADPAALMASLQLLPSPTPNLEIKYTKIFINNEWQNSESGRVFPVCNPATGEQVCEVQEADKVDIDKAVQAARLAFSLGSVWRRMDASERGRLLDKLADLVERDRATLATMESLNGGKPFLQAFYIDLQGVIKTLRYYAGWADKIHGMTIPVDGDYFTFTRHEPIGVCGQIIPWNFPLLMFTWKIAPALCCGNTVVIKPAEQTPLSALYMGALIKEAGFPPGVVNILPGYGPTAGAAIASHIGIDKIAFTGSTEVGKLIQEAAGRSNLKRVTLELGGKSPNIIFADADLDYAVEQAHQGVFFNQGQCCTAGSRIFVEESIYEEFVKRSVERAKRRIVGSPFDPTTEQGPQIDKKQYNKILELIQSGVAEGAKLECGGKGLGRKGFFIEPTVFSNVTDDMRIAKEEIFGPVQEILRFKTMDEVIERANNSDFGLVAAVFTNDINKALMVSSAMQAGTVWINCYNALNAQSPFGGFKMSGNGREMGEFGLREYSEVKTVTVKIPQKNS
As to conditions: Penzes et al. 1997; Chen and Juchau 1997; cited from earlier work.

In experiment [1] the test system is hyperproliferative psoriatic keratinocytes. Briefly: differentiation assay (K1/K10 mRNA, Northern blot / RT-PCR) on hyperproliferative psoriatic keratinocytes. It is filed as cell-based, human. As to conditions: peptides 6 μM, Ca2+ 1.2 mM, RBP 0.6 μM. How it is done:
RNA extraction is carried out according to the manufacturers instructions using the RNeasy kit (QIAGEN). 20 μg of RNA for each treatment was separated on a 1.2% agarose (1.8% formaldehyde) gel and transferred onto a nylon membrane (Zeta probe GT membranes, BioRad) by capillary transfer. The RNA is fixed to the membrane by UV crosslinking. DNA probes for the differentiation markers K1 and K10(50 ng) are labelled with [α-^32P] dCTP using the Prime-It RmT Primer labeling kit (Stratagene) following the manufacturer's instructions. Unincorporated nucleotides are removed by elution through a Microspin G25 column (Pharmacia Biotech). The blots are wetted in 0.25M sodium phosphate (pH 7.2)/7% SDS for 30 minutes at 65° C. Fresh hybridisation solution is added along with the radiolabelled probe and the blot is hybridised overnight at 65° C.
The blot is washed for 2×5 minutes in 0.25M sodium phosphate (pH 7.2), 7% SDS and then for 2×5 minutes in 20 mM sodium phosphate (pH 7.2), 5% SDS at 65° C. The wash steps are repeated until a clear distinction can be made between the signal and non-specific background. The blot is exposed to x-ray film for 24 hours before developing.
Synthesis of mRNA for the K1 and K10 keratin (markers for commitment to terminal differentiation) is examined by quantitative reverse transcription PCR (RT-PCR). Synthesis of mRNA for Cyclin D (a marker for cell proliferation) is also assayed by RT-PCR. Standard protocol for RT-PCR is followed as recommended by the manufacturer of the PCR machine (PE 2400) using 1 μg RNA from each keratinocyte culture. Suitable primers for RT-PCR are designed based on the human sequences of K1 and K10 deposited in GenBank. Northern blots are also performed: cells are harvested, RNA extracted and 20 μg RNA loaded into each well of a formaldehyde/agarose gel. The RNA is blotted onto a nylon membrane by capillary transfer and expression of K1 mRNA is determined by Northern hybridisation with a radiolabelled DNA probe.
Next, hyperproliferative epidermal keratinocytes are obtained, isolated and cultured as described above in Example 3. Hyperproliferative psoriatic keratinocytes are cultured as described above in serum-free medium with or without the addition of […] human retinol binding protein. At confluence the cells are treated (see Table 3 below) for 96 hours with peptides to 6 μM (medium replaced after 48 hours). Treatments shown in the Table 3 are for duplicate T-25 flasks (2×7 ml for each treatment).
The final concentrations are: Ca^2+ 1.2 mM, RBP 0.6 μM, peptides 6 μM.
Expression of K1 and K10 markers is determined as described above in Example 4. […]
Synthesis of mRNA for markers of proliferation and differentiation is also examined by semi-quantitative reverse transcription PCR (RT-PCR). […]

The next experiment relates to COS-7 cells. Briefly: proliferation assay of COS-7 cells (Coulter counter). Type of experiment: cell-based. The settings on record: P142 1 mg/ml, peptides 6 μM; 24 and 48 hours after treatment; FIG. 8. How it is done:
(§1) […] (COS1 and COS7) are purchased from the European Cell Culture Collection, thawed and propagated according to the instructions from the supplier; cells are cultured essentially in the same manner as for normal human keratinocytes (Example 3 above), except that cells are seeded at 20 000 cells/cm^2, with only one treatment with antibody P142, control immunoglobulin, peptide 589, peptide 592 or control peptide 24 hrs after seeding.
(§2) Proliferation is assayed by counting cells in a Coulter counter, as described above.

Another experiment relates to COS-1 cells. Description: proliferation assay of COS-1 cells (Coulter counter). It is filed as cell-based. The settings on record: P142 1 mg/ml, peptides 6 μM; 24 and 48 hours after treatment; FIG. 7. How it is done: as §1, §2

Take `CC(C)=CCCC(C)=CC=O` [Citral, 3,7-dimethyl-2,6-octadienal]: the values for the half-inhibitory concentration (IC50) at RalDHI and on RalDHII were 1 µM and 12 µM, respectively.
Consider GRVRLLNNWDVCA, for which the “differentiation (expression of K1 and K10 markers)” value in experiment [1] is “enhances the expression of K1 and K10 markers”; in experiment [1] (listed as peptide 389), “reversed”. Besides, in the experiment on COS-7 cells, the “proliferation of Cos-7 cells (cell numbers)” value is “marked reduction in proliferation”. The “proliferation of Cos-1 cells (cell numbers)” value in the experiment on COS-1 cells is “marked reduction in proliferation”.
